Experimental data as given in PubChem BioAssay AID449762 (Southern Research Specialized Biocontainment Screening …, 2010).
Records with an inconclusive call do not appear.

System: M. tuberculosis H37Rv growth inhibition, 7H9 media
Test: M. tuberculosis growth inhibition, HTS (AID 449762);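 note: bacterial growth assessed after seven days of incubation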
Details: for IC90: measured here: IC90 growth inhibition

SMILES | IC50 | IC90
Cc1ccc2nc(/N=C(\N)NC(=O)NC3CCCCC3)nc(C)c2c1 | 2.22 µM | 8.85 µM
COc1ccc(NC(=O)CSc2nnc(-c3ccccn3)n2N)cc1Cl | 18.1 µM | > 100 µM
Cc1ccc(-c2c[n+](CC(=O)N3c4ccccc4Sc4ccccc43)c3n2CCC3)cc1 | 12.9 µM | 20.2 µM
O=[N+]([O-])c1cnc(Nc2ccc(Cl)cn2)c([N+](=O)[O-])c1 | 45.8 µM | > 100 µM
Cc1cc(=O)oc2cc(Oc3ccc([N+](=O)[O-])cc3C(F)(F)F)ccc12 | 68.7 µM | > 100 µM
O=C(CSCc1ccc([N+](=O)[O-])cc1)N/N=C/c1ccncc1 | 3.47 µM | 10.3 µM
Cc1nc(SCC(=O)NCC2CCCO2)c2c3c(sc2n1)CCCC3 (stereo unspecified) | 22.2 µM | 24.6 µM
CCCCNC(=O)Nc1nnc(-c2ccc(OCC)cc2)o1 |  | > 100 µM
Cc1cc(NC2CCCCC2)nc(-c2ccccc2O)n1 | 39.2 µM | 51.3 µM
Cc1c(CCC(=O)NCCCn2ccnc2)c(=O)oc2c(C)c3occ(C(C)(C)C)c3cc12 | 23.1 µM | 36.3 µM
CCOC(=O)c1ccc(NC(=O)CCc2nc(-c3ccc(Cl)cc3)no2)cc1 | 27.4 µM | > 100 µM
CC1=NN(C(=O)c2ccc(Br)cc2)C(O)(c2ccccc2)C1 (stereo unspecified) | 48.1 µM | 65.6 µM
FC(F)(Cl)c1nnc2ccc(Cl)nn12 | 0.26 µM | 0.86 µM
CC(C)(C)NC(=O)[C@@H]1C[C@@H]2CCCC[C@@H]2CN1C[C@@H](O)[C@H](Cc1ccccc1)NC(=O)[C@H](CC(N)=O)NC(=O)c1ccc2ccccc2n1 | 40.1 µM | 51.9 µM
Cc1cc(N/N=C2/CCCc3ccccc32)nc2ccccc12 | 31.7 µM | 37.9 µM
C[C@@H]1CCCCCCCCC(=O)OCCN[C@H](C)CCCCCCCCC(=O)OCCN[C@H](C)CCCCCCCCC(=O)OCCN1 | 25.2 µM | 29.4 µM
O=C(OCC#CCSc1nnc(-c2cccc3ccccc23)o1)c1cccs1 | 35.5 µM | 63.9 µM
COc1ccc(C(=O)C2CCCN(C3CSCCSC3)C2)c(C)c1 (stereo unspecified) | 23.1 µM | 26.4 µM
COc1cccc(-c2cnc(NCc3cc(Cl)ccc3O)n2C)c1 | 19.1 µM | 22.9 µM
COC(=O)c1c(NC(=S)NN2CCN(C)CC2)sc2c1CCC(C)C2 (stereo unspecified) | 23 µM | 25.9 µM
COc1ccccc1/C=C/C(=O)Nc1ccc(S(=O)(=O)Nc2cc(C)on2)cc1 | 5.01 µM | 17.3 µM
O=C(Cn1ncc(Cl)c(Cl)c1=O)c1ccc2c(c1)OCCO2 | 6.83 µM | 12.2 µM

SMILES | IC50 | IC90
O=C(/C=C/c1ccc(OCCCF)cc1)Nc1ccnc(-c2ccncc2)n1 | 37.5 µM | 68.8 µM
O=C(CSc1nnnn1C1CCCCC1)Nc1nc2c(s1)CCCC2 | 30.7 µM | 59.3 µM
CCN1CCN(CCCNC(=O)c2ccc(/C=C3/Oc4ccccc4N(Cc4cccc(C)c4)C3=O)cc2)CC1 | 29.6 µM | 42.2 µM
O=C(c1ccc(-c2cccc(C(F)(F)F)c2)o1)N1CCN(c2ccccc2O)CC1 | 18.5 µM | 26.1 µM
Cc1ccc2[nH]c3c(N4CCN(Cc5ccccc5)CC4)ncnc3c2c1 | 22.3 µM | 42.6 µM
C=CCOc1ccc(C2C(C#N)=C(N)N(Nc3ccccc3)C3=C2C(=O)CC(C)(C)C3)cc1OC (stereo unspecified) | 30.1 µM | 68.2 µM
CCc1cc(/C(Cc2ccccn2)=N\Nc2ccccc2)c(O)cc1O | 60.5 µM | 77.4 µM
CCc1cc2c(=O)c(-c3cnn(-c4ccccc4)c3)c(C)oc2c(CN2CCCCC2)c1O | 2.58 µM | 21.7 µM
Cn1c(SCc2ccccc2)nc(N)c(N=O)c1=O | 3.5 µM | 20.8 µM
CC1(C)c2cc(Cl)ccc2-n2c1cc(O)c(-c1ccccc1)c2=O | 4.43 µM | 10.8 µM
CC(C)(O)C#Cc1ccc(C(=O)Nc2ccc3c(c2)OCO3)s1 | 1.63 µM | > 100 µM
Cc1ccc(C)c(NC(=O)c2cc(-c3ccccc3)nn2-c2ccccc2)c1 | 34.9 µM | 59.6 µM
Cc1nonc1NC(=O)CSc1ccc(-c2ccccc2)nn1 | 21.1 µM | 52.9 µM
CN(C)c1ccc(/C=C2\N=C(C(C)(C)C)OC2=O)cc1 | 14.4 µM | 34.5 µM
COCCN(C(=O)C1CC(=O)N(Cc2ccccc2)C1)c1nc(-c2ccc([N+](=O)[O-])cc2)cs1 (stereo unspecified) | 24.5 µM | 25.4 µM
CCc1cc(C(=O)Nc2ccc(C)cc2Br)cs1 | 30 µM | > 100 µM
CN(CCCC1CCCC1)C(=O)CCc1nnc(-c2ccccc2)o1 | 7.31 µM | 20.1 µM
COc1cnc(-c2ccccn2)nc1Oc1ccc(Cl)c2ccccc12 | < 0.2 µM | 2.86 µM
CCN(CC)S(=O)(=O)c1ccc(/C=C/C(=O)OCC#N)cc1 | 6.59 µM | 39.6 µM
Nc1ccc(S(=O)(=O)Nc2cnc3ccccc3n2)cc1 | 26.4 µM | 52 µM
COc1ccccc1N1CCN(CCCCOc2cccc3ccccc23)CC1 | 34 µM | 44.5 µM
CN(C)c1ccnc2c[cH-]cc12.[Fe].c1ccc(-[c-]2[c-](-c3ccccc3)[c-](-c3ccccc3)[c-](-c3ccccc3)[c-]2-c2ccccc2)cc1 (stereo unspecified) | 13.7 µM | 17.4 µM

SMILES | IC50 | IC90
Cc1nc2sccn2c1-c1nc(-c2cc3ccccc3o2)cs1 | 52.5 µM | 90.7 µM
CCOP(=O)(OCC)/C(=C/N1CCCCC1)NC(=O)c1ccccc1 | 81.4 µM | > 100 µM
CCOC(=O)C(C)Oc1ccc(NC(=O)C(Cl)(Cl)Cl)cc1 (stereo unspecified) | 2.38 µM | 5.08 µM
O=C1NCN(c2ccccc2)C12CCN(CCCC(c1ccc(F)cc1)c1ccc(F)cc1)CC2 | 36.8 µM | 47.1 µM
Cc1oc(-c2cccc(Cl)c2)nc1CN1CCC(C(=O)N2CCN(c3ccccc3F)CC2)CC1 | 20.8 µM | 26.3 µM
O=C(c1ccc(-c2ccccc2)c(F)c1)C1CCCN(C(=O)c2cncs2)C1 (stereo unspecified) | 35.9 µM | 46.8 µM
CN(C(=S)NC(=O)c1ccc(Cl)cc1)C1CCCCC1 | 3.1 µM | 13.7 µM
Cc1ccc(N2C(=O)C(F)(F)C2c2ccccc2)cc1 (stereo unspecified) | 2.79 µM | 5.46 µM
COc1ccc(-c2csc3nc(-c4ccccc4OC)oc(=O)c23)cc1 | < 0.2 µM | 24.1 µM
Cc1nc2ccc(NC(=O)c3ccc([N+](=O)[O-])cc3[N+](=O)[O-])cc2s1 | 1.62 µM | 16.7 µM
CCN(CC)C(=O)Oc1ccc2c(=O)c(-c3ccc(OC)cc3)coc2c1 | 28.5 µM | > 100 µM
Cc1c(C(=O)N(C)C)sc2nc(-c3ccccn3)[nH]c(=O)c12 | 5.89 µM | 16.9 µM
COC(=O)CCc1nc2c(C#N)c(-c3ccc(Cl)cc3)ccn2n1 | 1.68 µM | 3.31 µM
CC(C)CS(=O)(=O)C1=NN2C(=N)/C(=C\c3ccc(OC(=O)c4ccco4)cc3)C(=O)N=C2S1 | 20.6 µM | 25.9 µM
COC(=O)CSc1ncnc2c1cnn2-c1ccc(C)cc1C | 3.82 µM | 7.95 µM
CC(O)CNc1nc2ccccc2n1-c1ncnc2sc3c(c12)CCC3 (stereo unspecified) | 27.6 µM | 36.6 µM
CCCn1nnnc1NC(=O)c1ccc(C)cc1Cl | 7.89 µM | 19.4 µM
CCN1CCN(Cc2ccc(NC(=O)c3cc(NC(=O)c4cncc(-c5cccs5)c4)cc(OC)c3)cc2C(F)(F)F)CC1 | 10.2 µM | 14.6 µM
Cc1ccc2c(c1)nnn2C1CCN(CC(=O)N2CCN(c3ccc(F)cc3)CC2)CC1 | 35.3 µM | > 100 µM
O=C(CSc1nc(Nc2ccccc2)nc(N2CCOCC2)n1)Nc1cc(Cl)ccc1O | 44 µM | > 50 µM
CCCOc1cccc(C(=O)NC(=S)Nc2ccc(N3CCN(C)CC3)cc2)c1 |  | > 100 µM
O=C(NCCc1ccccc1)[C@@H]1CC=C[C@@H]2CCN(Cc3ccc(Cl)c(Cl)c3)C(=O)[C@@H]21 | 51.3 µM | 79.1 µM

SMILES | IC50 | IC90
COc1ccc(N=N/C(=C\O)C(=O)c2cccs2)cc1 |  | > 100 µM
CC(=O)O[C@H]1C[C@@]2(C)[C@@H](C[C@@H](O)[C@H]3[C@@]4(C)CC[C@@H](O)[C@@H](C)[C@@H]4CC[C@@]32C)/C1=C(\CCC=C(C)C)C(=O)O | 1.6 µM | 4.42 µM
Cc1cc(-c2nnc3n2CCCCC3)c(C)n1-c1ccccc1 | 45.7 µM | 51.4 µM
Cc1ccc(/C(N)=N/OC(=O)N2c3ccccc3Sc3ccccc32)cc1 | 52.4 µM | > 100 µM
O=C(COC(=O)C1=COCCO1)Nc1cccc(Oc2ccccc2)c1 | 5.18 µM | 55.4 µM
CCNc1nc(NCC)nc(N/N=C/c2ccc([N+](=O)[O-])o2)n1 | 0.99 µM | 1.67 µM
CC(C)OC(=O)c1ccc(NC(=S)NC(=O)c2cncc(Br)c2)cc1 | 52.4 µM | > 100 µM
CCOC(=O)C(C)Oc1ccc(OCc2ccccc2)cc1 (stereo unspecified) | 4.2 µM | 10.9 µM
NNC(=S)Nc1ccccc1Cl | 24.4 µM | 27.8 µM
Cc1ccccc1N1CCN(c2ncnc3c2cnn3Cc2ccc(Cl)cc2)CC1 | 5.12 µM | 8.72 µM
Cc1ccc(CN2C3CCCC2CC(NC(=S)NCc2ccccc2)C3)cc1 (stereo unspecified) | 45.8 µM | 52.4 µM
CN(CCO)c1cc(Sc2nc3ccccc3s2)c2nonc2c1[N+](=O)[O-] | 27 µM | > 100 µM
Cc1cc(NC(=O)c2sccc2C)n(-c2nc3ccccc3[nH]2)n1 | 2.94 µM | > 100 µM
COc1ccc(-c2oc3ccc(-c4ccc(OC)nc4)cc3c2C#CC2(O)CCCCC2)cc1 | 96.2 µM | > 100 µM
CSc1nsc(SCC(=O)Nc2ccc(F)cc2F)n1 | 19.8 µM | 63.4 µM
CCOc1ccc(N2CCc3c(C)nc(SC)nc32)cc1 | < 0.2 µM | > 100 µM
Nc1cc([N+](=O)[O-])ccc1Nc1ccc(O)cc1 | 30.4 µM | 34 µM
CNc1nc(SCc2ccccc2Cl)nc2c1CCCC2 | 0.73 µM | 2.52 µM
Cc1nn(-c2ccccc2)c(C)c1/C=N/NC(=O)c1cc(-c2cccc3ccccc23)n[nH]1 | 29 µM | > 100 µM
c1ccc2c(c1)CCN(c1nc(CN3CCOCC3)nc3sc4c(c13)CCCC4)C2 | 13.8 µM | 33.6 µM
CCOC(=O)c1ccc(-n2c(CCC(=O)O)ccc2-c2cccs2)cc1 | 9.13 µM | 14 µM
